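Exposure lasted 48 hours, with cells grown in 96-well plates and compounds tested at five concentrations. Here, GI50 denotes the concentration required for 50% inhibition of growth.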 Active and inactive are the calls of the source. Cut-off read from the data, not from the text of the source: active = GI50 up to about 1.1 µM and inactive = higher. Where only a bound is given, the exact number is not on record here.

Experimental findings from ChEMBL document CHEMBL1201862, “PubChem BioAssay data set” (2004) are described below.

Common to all, as to test: NCI anticancer screen, dose series, 48 h
The subject of assay [1] is T47D.
The test system of assay [2] is 786-0.
In assay [3] the test system is NCI-H226.
Assay [4] concerns Hs-578T.
Assay [5] has as its system OVCAR-4.
Assay [6] concerns NCI-H23.
The subject of assay [7] is SK-OV-3.
In assay [8] the test system is CAKI-1.
The test system of assay [9] is HCT-116.
The test system of assay [10] is SK-MEL-5.
The subject of assay [11] is SR.
In assay [12] the test system is SNB-75.
For assay [13], the system named is SK-MEL-2.
In assay [14] the test system is KM12.
Assay [15] has as its system UO-31.
Assay [16] has as its system NCI/ADR-RES.
The subject of assay [17] is SNB-19.
Assay [18] concerns RXF 393.
The subject of assay [19] is OVCAR-8.
Assay [20] deals with HL-60.

With `Nc1ncc(N)c(NCC2(CO)CC(CCc3ccccc3)C2)n1` (stereo not given), the GI50 in [1] is 1.11 µM (active); in assay [2], 8.47 µM (inactive); in assay [3], 5.83 µM (inactive); in assay [4], 9.55 µM (inactive); in assay [5] it was 4.02 µM (inactive); in assay [6] it was 5.13 µM (inactive). Further, the GI50 was 12.2 µM (inactive) in assay [7]; 7.73 µM (inactive) in [8]; 6.55 µM (inactive) in [9]; 3.13 µM (inactive) in [10]; 1.08 µM (active) in assay [11]; 12.6 µM (inactive) in [12]. Also, the GI50 was 6.95 µM (inactive) in assay [13]; 10 µM (inactive) in assay [14]; 1.19 µM (inactive) in assay [15]; 12.4 µM (inactive) in assay [16]; 11.1 µM (inactive) in assay [17]; 12.5 µM (inactive) in assay [18]. The results for the GI50 in [19] and in [20] were 10.5 µM (inactive) and 0.12 µM (active), respectively.
Regarding `CN(Cc1cnc2nc(N)nc(N)c2n1)c1ccc(C(=O)NCCCC(=O)O)cc1`, the GI50 in assay [1] was > 100 µM (inactive); in assay [2] it was 12.5 µM (inactive); in assay [3], > 37.5 µM (inactive); in assay [4], > 92.3 µM (inactive); in assay [5] it was > 100 µM (inactive); in [6], 37.3 µM (inactive). Besides, the GI50 in assay [7] is 97.9 µM (inactive); in assay [8], > 27.5 µM (inactive); in assay [9], 3.39 µM (inactive); in [10], 49.2 µM (inactive); in assay [11] it was 4.99 µM (inactive); in assay [12], > 62.7 µM (inactive). Moreover, the GI50 in assay [13] was > 100 µM (inactive); in assay [14], 8.38 µM (inactive); in assay [15], 17.5 µM (inactive); in assay [16] it was > 31.4 µM (inactive); in assay [17] it was > 63.1 µM (inactive); in assay [18], > 100 µM (inactive). The GI50 was 7.55 µM (inactive) in assay [19] and > 100 µM (inactive) in assay [20].
